Results as given in publication PMC6934184, “Selective DNA-PKcs inhibition extends the therapeutic index of localized radiotherapy and chemotherapy” (The Journal of Clinical Investigation, 2019).

Target: T1, FLT4 (VEGFR3) (Homo sapiens, UniProt P35916)
T1 construct: purchased Thermo Fisher Scientific (Life Technologies) SelectScreen
Assay: SelectScreen Z'LYTE
Assay type: biochemical
Method in brief: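 NU5455 was profiled across the SelectScreen Broad panel of kinase activity and binding assays. Z'LYTE reactions such as CSF1R ran at apparent Km ATP, while the Adapta CAMK1 assay used ATP listed as 10. Values are given as percent.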

T1 sequence (P35916 25-1363): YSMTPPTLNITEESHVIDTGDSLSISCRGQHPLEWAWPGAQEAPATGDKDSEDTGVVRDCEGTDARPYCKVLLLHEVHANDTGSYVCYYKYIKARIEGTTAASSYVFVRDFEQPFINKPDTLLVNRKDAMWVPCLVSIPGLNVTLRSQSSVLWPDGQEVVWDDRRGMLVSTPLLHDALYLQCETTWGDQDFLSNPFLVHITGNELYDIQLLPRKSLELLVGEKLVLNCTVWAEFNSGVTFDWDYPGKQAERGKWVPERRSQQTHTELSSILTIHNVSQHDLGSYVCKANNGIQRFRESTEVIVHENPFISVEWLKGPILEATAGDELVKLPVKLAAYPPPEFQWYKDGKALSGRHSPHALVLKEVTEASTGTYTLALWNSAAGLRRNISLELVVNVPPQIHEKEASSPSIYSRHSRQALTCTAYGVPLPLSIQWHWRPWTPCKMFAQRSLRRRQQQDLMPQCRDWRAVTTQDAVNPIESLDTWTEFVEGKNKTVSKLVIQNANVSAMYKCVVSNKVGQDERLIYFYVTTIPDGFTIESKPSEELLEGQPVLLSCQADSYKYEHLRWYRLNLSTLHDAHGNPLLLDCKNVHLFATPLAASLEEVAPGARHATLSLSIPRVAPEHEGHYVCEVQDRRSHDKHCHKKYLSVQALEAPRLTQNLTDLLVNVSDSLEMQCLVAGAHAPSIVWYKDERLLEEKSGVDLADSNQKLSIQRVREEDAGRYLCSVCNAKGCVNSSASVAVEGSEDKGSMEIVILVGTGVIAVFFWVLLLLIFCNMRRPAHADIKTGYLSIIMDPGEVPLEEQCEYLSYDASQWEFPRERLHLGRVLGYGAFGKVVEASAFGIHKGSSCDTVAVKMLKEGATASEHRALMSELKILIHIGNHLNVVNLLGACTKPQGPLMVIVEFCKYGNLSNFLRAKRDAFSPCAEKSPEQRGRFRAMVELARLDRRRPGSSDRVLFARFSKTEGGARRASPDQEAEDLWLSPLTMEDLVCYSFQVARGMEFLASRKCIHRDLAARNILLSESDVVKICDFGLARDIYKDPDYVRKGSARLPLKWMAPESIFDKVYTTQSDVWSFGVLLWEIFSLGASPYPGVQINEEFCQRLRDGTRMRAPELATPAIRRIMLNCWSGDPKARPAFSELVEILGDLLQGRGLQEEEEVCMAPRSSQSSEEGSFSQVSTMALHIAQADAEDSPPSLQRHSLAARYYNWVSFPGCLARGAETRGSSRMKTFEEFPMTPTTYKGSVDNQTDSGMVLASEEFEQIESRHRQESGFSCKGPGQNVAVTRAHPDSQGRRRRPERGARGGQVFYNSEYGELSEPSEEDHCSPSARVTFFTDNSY

## CN(C(=O)CN1CCOCC1)c1ccc2sc3c(-c4cccc5c(=O)cc(N6CC7CCC(C6)O7)oc45)cccc3c2c1 [NU5455]
  inhibition at 1 µM: 3.5%
